According to paper PMC10597491 (PLOS ONE, 2023):

Tests used:
[1] = tested on: cynomolgus monkey PBMCs; assay: pSTAT5 flow cytometry in cynomolgus PBMC subsets; type: cell-based, cynomolgus macaque; conditions: rested cynomolgus PBMCs
From the text: Frozen PBMCs from 5 healthy human donors (A, B) and cynomolgus monkey (C) were rested (A, C) or activated with anti-CD3/CD28 (B). Cells were stained for viability, followed by cell surface antibody staining on ice. […] After washing, cells were fixed, permeabilized, stained with anti-pSTAT5 antibody, and analyzed immediately by flow cytometry. The mean fluorescence intensity (MFI) of pSTAT5 detection was shown as mean ± SEM. […] Flow cytometry gating data shown in S2 Fig.
To detect phopho-STAT5 in immune subsets of PBMCs by flow cytometry, frozen human and cynomolgus macaques PBMCs (Stemcell Technologies, Cat# 70025.2 and iQ Biosciences, Cat# IQB-MnPB102, respectively) from 5 different healthy donors were thawed and rested overnight in T-cell media (CTS™ OpTmizer™ T-Cell Expansion SFM, ThermoFisher Scientific Cat# A1048501) at 37°C. Cells were stained with a viability dye for 30 min at 37°C followed by surface marker antibodies for 30 min on ice (S3 Table), then treated with serially diluted test compounds in the medium for 30 min. […] Antibody-stained cells were analyzed immediately by flow cytometry using the Novocyte Advanteon instrument (Agilent), and the data were analyzed using FlowJo software. Fluorescence minus one (FMO) controls were used to draw gates. […]

[2] = tested on: human PBMCs; assay: Proliferation and expansion of PBMC subpopulations in culture; type: cell-based
From the text: An essential feature of IL-7-mediated homeostatic lymphoid maintenance is the proliferation of naive T-cells, expanding both recent thymic emigrants and circulating TN clones to sustain the population and preserve a diverse TCR repertoire in the naive T-cell compartment. […] In the CD8+ population, Ki-67+ frequency reached a peak by day 7, declining slightly by day 16. […] The high Ki-67 background in untreated samples of Treg and NK cells may indicate a high basal turnover rate of these cell types in culture.
Data are shown as mean ± SEM. Flow cytometry gating data shown in S2 Fig.
On days 3, 7, 16, and 30, cell aliquots were taken and analyzed by flow cytometry of CD8+ T naïve and memory populations. (A) Schematic of the putative differentiation pathway of the memory T cell compartment. (B) differential gating of naïve and early memory (Tscm) subpopulations. (C) Cell counts of treated and untreated memory subpopulations over time. (D) Stacked bar representation of changes in total memory T cell subpopulations over time. […] Data are shown as mean ± SEM. Detailed gating information is provided in S4 Fig.
Frozen human PBMCs from 5 healthy donors (Stemcell Technologies, Cat# 70025.2, Lot numbers 2108409012, 2109407009, 210680104C, 210680801C, 211280501C, 220781802C) were thawed and rested overnight at 37°C, 5% CO2 in CTS™ OpTmizer™ T-Cell Expansion SFM (ThermoFisher Scientific Cat# A1048501). […] At indicated time points, cell aliquots were taken, and cell surface staining was performed using antibodies shown in S3 Table followed by viability dye staining. For Ki-67 and FoxP3 staining, surfaced stained cells were fixed and permeabilized according to the manufacturer’s instructions and analyzed immediately using the Novocyte Advanteon instrument (Agilent). The data were analyzed using FlowJo software. Fluorescence Minus One (FMO) controls were used to draw gates. Percentages of Ki-67+ cell populations were expressed as average ± SEM. Memory T-cells are as follows: Tn (CD45RA+CCR7+CD28+CD95-), Tscm (CD45RA+CCR7+CD28+CD95+), Tem (CD45RA-CCR7-), Tcm (CD45RA-CCR7+), and Temra (CD45RA+CCR7-). To count cells per well, at each assay time point 50 μL of the cells were taken from each well and incubated with 200 μL of the viability dye solution. The NovoCyte Advanteon flow cytometer was set to analyze precisely 50 μL ([…] original culture volume), which allowed the calculation of the absolute live cell counts. Because the culture volumes change over time due to splitting and removal, dilution factors were considered when calculating the total number of cells.

IL-7: human IL-7 cytokine (Peprotech)
efficacy in cynomolgus lymphocyte subtypes [1]: equivalent efficacy
CD4+ and CD8+ maximal counts over day 1 baseline ([2]; between days 7 and 16): 5 fold
CD8+ Tscm cell number increase ([2]; day 30, 100 nM MDK-703 or 1 nM IL-7, untreated 5-fold): 1300 fold
CD8+ T-cell number, increase over baseline ([2]; day 30 in culture, 100 nM MDK-703 or 1 nM IL-7, 5 donors): 5.2 fold
CD8+ Temra expansion ([2]; over 30 days): 7 fold
